In brackets after ≈: the same amount, converted by molar mass. Read-outs that look alike come from different tables or passages of the source.
What was measured:
C. auris B11245 = type: cell-based, Candida auris; details: RPMI1640, 37 °C, 48 h, CAS: paradoxical growth; for MIC of antifungal in combination with KKOO: MIC = <20% growth; for MIC of antifungal in combination with KKOO-NH2: MIC = well with <20% growth
Description: (§1) All microdilution assays with fungi were carried out in accordance with CLSI protocols from M27 for yeasts and M38 for filamentous fungi, respectively, unless otherwise specified.[64],[65] Briefly, 96-well plates were charged with RPMI1640 media, with operating volume in the first column, 200 μL, and half operating volume, 100 μL, in the remaining wells. Drug stock solution in DMSO was aliquoted into the first well in each row. Half of the volume in the dosed well was serially diluted 2-fold until column 11. Column 11 was used as the negative growth control, and column 12 was used as the positive growth control. ON yeast cultures in YPD were washed twice in DD-H2O, resuspended in PBS, and adjusted to 5000 cfu/mL in RPMI. The 96-well plate was inoculated with 100 μL aliquots of cell suspension per well. Plates were incubated at 37 °C for 2 days.
(§2) To assess drug synergy, the initial media charged to the plate contained the peptide at twice the final operating concentration; the remaining processing steps were identical to the MIC experiment. Upon addition of 100 μL of inoculant, the final operating concentration was achieved. Control MIC plates were prepared alongside drug synergy plates to account for the day-to-day variability in any individual MIC. FIC index is computed using eq 1. All MIC assays and drug synergy assays were completed with two technical replicates per 96-well plate and a minimum of two biological replicates per drug combination. If a difference in MIC between the two technical replicates on the plate were observed, only the higher concentration was reported as the MIC to reduce the possibility of type 1 error (false positive) [drawing 1] 1

C. albicans SC5413 [1] = type: cell-based, Candida albicans; details: RPMI1640, 37 °C, 48 h; for MIC of antifungal in combination with KKOO: azole MICs unclear (intermediate phenotype); for MIC of antifungal in combination with KKOO-NH2: azole MICs could not be determined (intermediate phenotype)
Description: as §1, §2

Cg FKS2 S663P = test: Drug synergy (MIC in peptide-supplemented media); type: cell-based, Candida glabrata; details: RPMI1640, 37 °C, 48 h
Description: as §1, §2

Cg FKS1 S629P = test: Drug synergy (MIC in peptide-supplemented media); type: cell-based, Candida glabrata; details: RPMI1640, 37 °C, 48 h
Description: as §1, §2

C. glabrata 2001 = type: cell-based, Candida glabrata; details: RPMI1640, 37 °C, 48 h
Description: as §1, §2

A. fumigatus AF293 [2] = test: Drug synergy (MIC in peptide-supplemented media); type: cell-based, Aspergillus fumigatus; details: RPMI1640, 37 °C, 48 h, CAS: paradoxical growth; for MIC of antifungal in combination with KKOO: MIC = <20% growth; for MIC of antifungal in combination with KKOO-NH2: MIC = well with <20% growth
Description: as §1, §2

C. neoformans apt1Δ = test: microbe, parasite or virus in culture; type: cell-based, Cryptococcus neoformans; details: Cryptococcus neoformans, 48 h
Procedure, shortened: (§3)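 Testing follows the CLSI M27 protocol for yeasts: test compounds are diluted 2-fold serially in RPMI1640, and washed overnight cells are added at 5000 cfu/mL before 2 days' incubation at 37 °C.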

C. neoformans H99 = test: microbe, parasite or virus in culture; type: cell-based, Cryptococcus neoformans; details: Cryptococcus neoformans, H99; compound alone; RPMI1640, 37 °C, 48 h; read-out: MIC
Procedure, shortened: as §3

C. neoformans apt3Δ = test: microbe, parasite or virus in culture; type: cell-based, Cryptococcus neoformans; details: Cryptococcus neoformans, 48 h
Procedure, shortened: as §3

C. neoformans cdc50Δ = test: microbe, parasite or virus in culture; type: cell-based, Cryptococcus neoformans; details: Cryptococcus neoformans, 48 h
Procedure, shortened: as §3

C. neoformans apt4Δ = test: microbe, parasite or virus in culture; type: cell-based, Cryptococcus neoformans; details: Cryptococcus neoformans, 48 h
Procedure, shortened: as §3

C. neoformans MRL862 = test: microbe, parasite or virus in culture; type: cell-based, Cryptococcus neoformans; details: Cryptococcus neoformans, MRL862, 48 h
Procedure, shortened: as §3

C. neoformans Crm1^OE = test: microbe, parasite or virus in culture; type: cell-based, Cryptococcus neoformans; details: Cryptococcus neoformans, 48 h
Procedure, shortened: as §3

C. neoformans crm1Δ = test: microbe, parasite or virus in culture; type: cell-based, Cryptococcus neoformans; details: Cryptococcus neoformans, 48 h
Procedure, shortened: as §3

C. neoformans apt2Δ = test: microbe, parasite or virus in culture; type: cell-based, Cryptococcus neoformans; details: Cryptococcus neoformans, 48 h
Procedure, shortened: as §3

A. fumigatus AF293 [3] = test: microbe, parasite or virus in culture; type: cell-based, Aspergillus fumigatus; details: Aspergillus fumigatus, AF293; compound alone; RPMI1640, 37 °C, 48 h; * = paradoxical growth observed (CAS); read-out: MIC
Description: as §1

C. albicans SC5413 [4] = test: microbe, parasite or virus in culture; type: cell-based, Candida albicans; details: Candida albicans, SC5413; compound alone; RPMI1640, 37 °C, 48 h; read-out: MIC
Procedure, shortened: as §3

Cn MRL862 = type: cell-based, Cryptococcus neoformans; details: RPMI1640, 37 °C, 48 h
Description: as §1, §2

C[C@@H]1[C@H](O)[C@@H](C)/C=C/C=C/C=C/C=C/C=C/C=C/C=C/[C@H](O[C@@H]2O[C@H](C)[C@@H](O)[C@H](N)[C@@H]2O)C[C@@H]2O[C@](O)(C[C@@H](O)C[C@@H](O)[C@H](O)CC[C@@H](O)C[C@@H](O)CC(=O)O[C@H]1C)C[C@H](O)[C@H]2C(=O)O [AMB, amphotericin B]
MIC of antifungal in combination with KKOO (C. auris B11245; +0 μg/mL KKOO (control)): 1 µg/mL
MIC of antifungal in combination with KKOO-NH2 (C. auris B11245; +0 μg/mL KKOO-NH2 (control)): 1 µg/mL
MIC of antifungal in combination with KKOO-NH2 (C. auris B11245; +1 μg/mL KKOO-NH2): 0.5 µg/mL
MIC of antifungal in combination with KKOO (C. auris B11245; +1 μg/mL KKOO): 0.5 µg/mL
MIC of antifungal in combination with KKOO-NH2 (C. auris B11245; +2 μg/mL KKOO-NH2): 0.5 µg/mL
MIC of antifungal in combination with KKOO (C. auris B11245; +2 μg/mL KKOO): 0.5 µg/mL
MIC of antifungal in combination with KKOO-NH2 (C. auris B11245; +4 μg/mL KKOO-NH2): 0.25 µg/mL
MIC of antifungal in combination with KKOO (C. auris B11245; +4 μg/mL KKOO): 0.25 µg/mL
MIC of antifungal in combination with KKOO (C. albicans SC5413 [1]; +0 μg/mL KKOO (control)): 1 µg/mL
MIC of antifungal in combination with KKOO-NH2 (C. albicans SC5413 [1]; +0 μg/mL KKOO-NH2 (control)): 1 µg/mL
MIC of antifungal in combination with KKOO-NH2 (C. albicans SC5413 [1]; +1 μg/mL KKOO-NH2): 0.5 µg/mL
MIC of antifungal in combination with KKOO (C. albicans SC5413 [1]; +1 μg/mL KKOO): 0.5 µg/mL
MIC of antifungal in combination with KKOO-NH2 (C. albicans SC5413 [1]; +2 μg/mL KKOO-NH2): 0.25 µg/mL
MIC of antifungal in combination with KKOO (C. albicans SC5413 [1]; +2 μg/mL KKOO): 0.25 µg/mL
MIC of antifungal in combination with KKOO-NH2 (C. albicans SC5413 [1]; +4 μg/mL KKOO-NH2): 0.25 µg/mL
MIC of antifungal in combination with KKOO (C. albicans SC5413 [1]; +4 μg/mL KKOO): 0.125 µg/mL
MIC of antifungal in combination with KKOO (C. albicans SC5413 [1]; +8 μg/mL KKOO): 0.125 µg/mL
MIC of antifungal in combination with KKOO (Cg FKS2 S663P; +0 μg/mL KKOO (control)): 0.25 µg/mL
MIC of antifungal in combination with KKOO-NH2 (Cg FKS2 S663P; +0 μg/mL KKOO-NH2 (control)): 0.25 µg/mL
MIC of antifungal in combination with KKOO-NH2 (Cg FKS2 S663P; +1 μg/mL KKOO-NH2): 0.25 µg/mL
MIC of antifungal in combination with KKOO (Cg FKS2 S663P; +1 μg/mL KKOO): 0.25 µg/mL
MIC of antifungal in combination with KKOO-NH2 (Cg FKS2 S663P; +2 μg/mL KKOO-NH2): 0.062 µg/mL
MIC of antifungal in combination with KKOO (Cg FKS2 S663P; +2 μg/mL KKOO): 0.125 µg/mL
MIC of antifungal in combination with KKOO-NH2 (Cg FKS2 S663P; +4 μg/mL KKOO-NH2): 0.016 µg/mL
MIC of antifungal in combination with KKOO (Cg FKS2 S663P; +4 μg/mL KKOO): 0.031 µg/mL
MIC of antifungal in combination with KKOO (Cg FKS1 S629P; +0 μg/mL KKOO (control)): 1 µg/mL
MIC of antifungal in combination with KKOO-NH2 (Cg FKS1 S629P; +0 μg/mL KKOO-NH2 (control)): 0.5 µg/mL
MIC of antifungal in combination with KKOO-NH2 (Cg FKS1 S629P; +1 μg/mL KKOO-NH2): 0.25 µg/mL
MIC of antifungal in combination with KKOO (Cg FKS1 S629P; +1 μg/mL KKOO): 0.5 µg/mL
MIC of antifungal in combination with KKOO-NH2 (Cg FKS1 S629P; +2 μg/mL KKOO-NH2): 0.125 µg/mL
MIC of antifungal in combination with KKOO (Cg FKS1 S629P; +2 μg/mL KKOO): 0.25 µg/mL
MIC of antifungal in combination with KKOO-NH2 (Cg FKS1 S629P; +4 μg/mL KKOO-NH2): 0.062 µg/mL
MIC of antifungal in combination with KKOO (Cg FKS1 S629P; +4 μg/mL KKOO): 0.25 µg/mL
MIC of antifungal in combination with KKOO (C. glabrata 2001; +0 μg/mL KKOO (control)): 1 µg/mL
MIC of antifungal in combination with KKOO-NH2 (C. glabrata 2001; +0 μg/mL KKOO-NH2 (control)): 1 µg/mL
MIC of antifungal in combination with KKOO-NH2 (C. glabrata 2001; +1 μg/mL KKOO-NH2): 0.5 µg/mL
MIC of antifungal in combination with KKOO (C. glabrata 2001; +1 μg/mL KKOO): 0.5 µg/mL
MIC of antifungal in combination with KKOO-NH2 (C. glabrata 2001; +2 μg/mL KKOO-NH2): 0.25 µg/mL
MIC of antifungal in combination with KKOO (C. glabrata 2001; +2 μg/mL KKOO): 0.25 µg/mL
MIC of antifungal in combination with KKOO-NH2 (C. glabrata 2001; +4 μg/mL KKOO-NH2): 0.25 µg/mL
MIC of antifungal in combination with KKOO (C. glabrata 2001; +4 μg/mL KKOO): 0.25 µg/mL
MIC of antifungal in combination with KKOO (C. glabrata 2001; +8 μg/mL KKOO): 0.125 µg/mL
MIC of antifungal in combination with KKOO (A. fumigatus AF293 [2]; +0 μg/mL KKOO (control)): 1 µg/mL
MIC of antifungal in combination with KKOO-NH2 (A. fumigatus AF293 [2]; +0 μg/mL KKOO-NH2 (control)): 1 µg/mL
MIC of antifungal in combination with KKOO-NH2 (A. fumigatus AF293 [2]; +1 μg/mL KKOO-NH2): 0.5 µg/mL
MIC of antifungal in combination with KKOO (A. fumigatus AF293 [2]; +1 μg/mL KKOO): 0.25 µg/mL
MIC of antifungal in combination with KKOO-NH2 (A. fumigatus AF293 [2]; +2 μg/mL KKOO-NH2): 0.25 µg/mL
MIC of antifungal in combination with KKOO (A. fumigatus AF293 [2]; +2 μg/mL KKOO): 0.25 µg/mL
MIC of antifungal in combination with KKOO-NH2 (A. fumigatus AF293 [2]; +4 μg/mL KKOO-NH2): 0.5 µg/mL
MIC of antifungal in combination with KKOO (A. fumigatus AF293 [2]; +4 μg/mL KKOO): 0.25 µg/mL
MIC of antifungal in combination with KKOO-NH2 (A. fumigatus AF293 [2]; +8 μg/mL KKOO-NH2): 0.5 µg/mL
MIC (C. neoformans apt1Δ): 0.5 µg/mL (≈ 0.541 µM)
MIC (C. neoformans H99): 0.5 µg/mL (≈ 0.541 µM)
MIC (C. neoformans apt3Δ): 0.5 µg/mL (≈ 0.541 µM)
MIC (C. neoformans cdc50Δ): 0.5 µg/mL (≈ 0.541 µM)
MIC (C. neoformans apt4Δ): 0.25 µg/mL (≈ 0.271 µM)
MIC (C. neoformans MRL862): 0.125 µg/mL (≈ 0.135 µM)
MIC (C. neoformans Crm1^OE): 0.5 µg/mL (≈ 0.541 µM)
MIC (C. neoformans crm1Δ): 0.5 µg/mL (≈ 0.541 µM)
MIC (C. neoformans apt2Δ): 0.25 µg/mL (≈ 0.271 µM)
MIC (A. fumigatus AF293 [3]): 1 µg/mL (≈ 1.08 µM)
MIC (C. albicans SC5413 [4]): 1 µg/mL (≈ 1.08 µM)
MIC of antifungal in combination with KKOO (Cn MRL862; +0 μg/mL KKOO (control)): 0.25 µg/mL
MIC of antifungal in combination with KKOO-NH2 (Cn MRL862; +0 μg/mL KKOO-NH2 (control)): 0.25 µg/mL
MIC of antifungal in combination with KKOO-NH2 (Cn MRL862; +1 μg/mL KKOO-NH2): 0.125 µg/mL
MIC of antifungal in combination with KKOO (Cn MRL862; +1 μg/mL KKOO): 0.125 µg/mL
MIC of antifungal in combination with KKOO-NH2 (Cn MRL862; +2 μg/mL KKOO-NH2): 0.031 µg/mL
MIC of antifungal in combination with KKOO (Cn MRL862; +2 μg/mL KKOO): 0.031 µg/mL
MIC of antifungal in combination with KKOO-NH2 (Cn MRL862; +4 μg/mL KKOO-NH2): 0.016 µg/mL
MIC of antifungal in combination with KKOO (Cn MRL862; +4 μg/mL KKOO): 0.016 µg/mL

Source: publication PMC11555678, “Improved Broad Spectrum Antifungal Drug Synergies with Cryptomycin, a Cdc50-Inspired Antifungal Peptide” (ACS Infectious Diseases, 2024)
